The source of these data is patent US11801209B2, “Cooling and flavor boosting compositions” (Firmenich SA, priority 2017, dated 2023).

The subject of the test is expert panel of three subjects. The test is described as follows: Sensory evaluation of toothpaste test formulations by an expert panel: intensity of mint flavor and of cooling effect. The format is in vivo, human. The note with it: test toothpaste formulation, summary of Table 8. The procedure:
The potentiation may be determined by any method readily selected by one of ordinary skill in the art. In some aspects, the potentiation is determined using a sensory panel. In the aspects where the potentiation is determined using a sensory panel a subject may contact their oral cavity with a composition, and rate the perceived flavor strength and cooing strength of the composition.
In some aspects, the perceived flavor intensity may be rated from 0 to 5, wherein 0 is no perceived flavor intensity, 1 is a very low perceived flavor intensity, 2 is a low perceived flavor intensity, 3 is a moderate perceived flavor intensity, 4 is a high perceived flavor intensity, and 5 is a very high perceived flavor intensity.
In some aspects, the perceived cooling intensity may be rated from 0 to 5, wherein 0 is no perceived cooling intensity, 1 is a very low perceived cooling intensity, 2 is a low perceived cooling intensity, 3 is a moderate perceived cooling intensity, 4 is a high perceived cooling intensity, and 5 is a very high perceived […].
(§1) An expert panel of three subjects was asked to evaluate the intensity of the mint flavor and the intensity of the cooling effect of the test formulations. The subjects were asked to apply approximately 1 g of a test sample on to a toothbrush, and rinse the toothbrush under running water for 5 secs to moisten the paste and soften the bristles. The subjects then brushed their teeth with the applied test sample, taking care to minimize any contact with the subjects' gums. The subjects then expectorated the test sample, and rinsed their mouth with water. The subjects then ranked the intensity of the mint flavor and the intensity of the cooling effect of the test formulations. The subjects were asked to wait for 15 min between each test sample.
as §1, with “subjects” for “subjects was”
Take `CCCC(CCC)NC(=O)c1ccc2c(c1)OCO2` [n-(1-propylbutyl)-1,3-benzodioxole-5-carboxamide]: the “effect on perceived flavor intensity and perceived cooling intensity of the mint flavor” value (from here on “effect”) is “able to increase both the perceived flavor intensity and the perceived cooling intensity”.

As to `O=C(O)C1CCCCC1` [cyclohexanecarboxylic acid], the “effect” value was “able to increase both the perceived flavor intensity and the perceived cooling intensity”.

For `COc1cc(/C=C/C(=O)O)ccc1O` [ferulic acid], the “effect” value is “able to increase both the perceived flavor intensity and the perceived cooling intensity”.

Turning to `COC(C)=O` [methyl acetate], the “effect” value is “able to increase both the perceived flavor intensity and the perceived cooling intensity”.

As to `CCCCC[C@@H]1C(=O)CC[C@@H]1CC(=O)OC` [(+)-methyl(1R)-cis-3-oxo-2-pentyl-1-cyclopentaneacetate], the “effect” value is “able to increase both the perceived flavor intensity and the perceived cooling intensity”.

On to `O=C(CCc1ccc(O)cc1)c1c(O)cc(O)cc1O` [phloretin], for which the “effect” value is “able to increase both the perceived flavor intensity and the perceived cooling intensity”.

Regarding `Cc1noc(C)c1Cn1cc(N2C(=O)CN(Cc3cccc(O)c3)C2=O)cn1` [3-(1-((3,5-dimethylisoxazol-4-yl)methyl)-1H-pyrazol-4-yl)-1-(3-hydroxybenzyl)imidazolidine-2,4-dione], the “effect” value was “able to increase both the perceived flavor intensity and the perceived cooling intensity”.
